For experiment [1], the system named is p52 (NF-kB2) nuclear translocation in HeLa cells. In words: p52 nuclear translocation assay (non-classical NF-kB signaling), high content imaging. Format: cell-based. The following applies: 100 ng/mL anti-lymphotoxin beta receptor antibody for 5 hours, read-out: p52 HeLa Transloc Assay (IC50). As to the method: (§1) (2) A second set of cell assay are used to define the selectivity of NIK inhibitors toward inhibition of classical vs. non-classical NF-kB signaling and rely on quantification of the nuclear translocation of p52 (NF-kB2) and REL-A (p65) using high content cellular imaging. For the p52 (non-classical NF-kB signaling) nuclear translocation assay, HeLa cells are treated with different concentrations of compounds (0.2% DMSO final) in medium containing 10% fetal bovine serum and then stimulated with 100 ng/mL, of an anti-lymphotoxin beta receptor antibody (R&D Systems) for 5 hours. In the REL-A nuclear translocation assay, HeLa cells are incubated with compounds (0.2% DMSO final) for 4.5 hours in medium containing 10% fetal bovine serum before stimulating them with 10 ng/mL tumor necrosis factor (TNF)-α (R&D Systems) for 30 minutes. Cells are fixed with 4% paraformaldehyde, permeabilized by adding 0.1% Triton X-100 in phosphate buffered saline, and then are incubated with either 2 ug/mL anti-p52 antibody (Millipore) or 400 ng/mL anti-REL-A (p65) antibody (Santa Cruz Biotechnology). Finally, the cells are incubated with an Alexa488-labeled secondary antibody (Invitrogen) and DRAQ5 DNA stain (Biostatus). Imaging is carried out using an Opera reader (Perkin Elmer) and data are analyzed with the aid of Acapella software (Perkin Elmer). The p52 or REL-A translocation into the nucleus is quantified by the ratio of the nuclear to cytoplasmic signal intensity. […] The compounds in listed in Table 1 have the corresponding inhibitory value (IC50 in micromolar) for NIK p52 Translocation Assay as set forth in Table 2.

For experiment [2], the system named is REL-A (p65) nuclear translocation in HeLa cells. In words: REL-A nuclear translocation assay (classical NF-kB signaling), high content imaging. Format: cell-based. Particulars: Homo sapiens, compounds 4.5 hours, then 10 ng/mL TNF-α for 30 minutes, read-out: REL-A HeLa Transloc Assay (IC50). The protocol:
as §1
The compounds in listed in Table 1 has the corresponding inhibitory value (IC50 in micromolar) for NIK RelA Translocation Assay as set forth in Table 2.

Experiment [3] has as its target nuclear factor-kappa B (NF-kB)-inducing kinase (NIK) (Homo sapiens (Human), UniProt Q99558). Nature of the experiment: NIK Enzyme Inhibition Assay (Transcreener ADP fluorescence polarization). Format: biochemical. The following applies: purified NIK 0.2-1 nM, 10 uM ATP, Morrison's quadratic equation; read-out: NIK ADP-FP (Ki uM). The method in brief: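 Fluorescence-polarization ADP detection (tracer displacement, 633 nm excitation) read after EDTA/Brij quench. Reaction: 0.2-1 nM insect-cell-derived NIK, 10 uM ATP, HEPES pH 7.2 with MgCl2 and DTT, 1% DMSO, 1-3.5 h with compounds.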

Read-outs that look alike come from different tables or passages of the source. Bounds are passed on as bounds.

nuclear factor-kappa B (NF-kB)-inducing kinase (NIK), sequence (Q99558 whole entry): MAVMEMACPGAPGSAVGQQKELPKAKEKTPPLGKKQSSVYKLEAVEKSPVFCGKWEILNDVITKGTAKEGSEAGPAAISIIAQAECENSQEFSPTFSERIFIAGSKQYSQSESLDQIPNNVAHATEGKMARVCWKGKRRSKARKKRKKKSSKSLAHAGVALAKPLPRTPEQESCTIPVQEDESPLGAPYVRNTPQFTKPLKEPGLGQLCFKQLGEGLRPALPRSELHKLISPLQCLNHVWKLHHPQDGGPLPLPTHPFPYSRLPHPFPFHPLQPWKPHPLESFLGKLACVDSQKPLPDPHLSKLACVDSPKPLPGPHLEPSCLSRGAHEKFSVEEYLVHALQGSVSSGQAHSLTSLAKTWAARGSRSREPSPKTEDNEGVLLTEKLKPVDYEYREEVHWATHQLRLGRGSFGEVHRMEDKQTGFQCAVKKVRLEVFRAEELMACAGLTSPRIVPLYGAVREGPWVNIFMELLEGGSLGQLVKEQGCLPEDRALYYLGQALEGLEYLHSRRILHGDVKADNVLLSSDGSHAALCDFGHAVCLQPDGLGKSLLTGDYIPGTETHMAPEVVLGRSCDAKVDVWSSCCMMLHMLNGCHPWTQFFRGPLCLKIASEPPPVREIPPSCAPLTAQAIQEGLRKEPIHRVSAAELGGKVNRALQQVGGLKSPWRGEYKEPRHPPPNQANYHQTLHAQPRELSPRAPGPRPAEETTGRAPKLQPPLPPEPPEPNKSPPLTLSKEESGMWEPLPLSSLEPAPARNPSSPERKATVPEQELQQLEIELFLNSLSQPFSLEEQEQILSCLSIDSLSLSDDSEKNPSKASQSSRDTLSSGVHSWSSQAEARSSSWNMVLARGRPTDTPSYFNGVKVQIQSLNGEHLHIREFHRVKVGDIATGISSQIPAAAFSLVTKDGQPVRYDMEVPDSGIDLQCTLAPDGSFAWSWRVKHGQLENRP

The IC50 is the point on the concentration scale where inhibition reaches its midpoint. Regarding `CN1CC[C@@](O)(C#Cc2ccc3c(c2)-c2nc(C(N)=O)sc2C(F)(F)CO3)C1=O` [Example 406, 10-[(3R)-3-hydroxy-3-(5-methylisoxazol-3-yl)but-1-ynyl]-N3,N3-dimethyl-5,6,7,12-tetrahydro-5,7-methanobenzo[c]imidazo[1,2-a]azepine-2,3-dicarboxamide], the half-maximal inhibitory concentration (IC50) in experiment [1] (Homo sapiens, HeLa, 5 h) is 76.1 nM; in experiment [2] (HeLa), > 20000 nM.

As to `NC(=O)c1nc2c(s1)CCOc1cc(F)c(C#CC3(O)CCCC3)cc1-2` [Example 40, 8-fluoro-9-(1-hydroxy-cyclopentyl-ethynyl)-4,5-dihydro-6-oxa-3-thia-1-aza-benzo[e]azulene-2-carboxylic acid amide], the 50% inhibitory concentration (IC50) is 68 nM in experiment [1] (Homo sapiens) and 20000 nM in experiment [2].

For the molecule `Cc1cc([C@](C)(O)C#Cc2ccc3c(c2)-c2nc(C(N)=O)c(CN4CCCC4)n2C2CC3C2)no1` [Example 424, 10-(3-hydroxy-3-methyl-but-1-ynyl)-N3-methyl-5,6,7,12-tetrahydro-5,7-methanobenzo[c]imidazo[1,2-a]azepine-2,3-dicarboxamide], the IC50 is 3200 nM in experiment [1] (Homo sapiens, HeLa, 5 h) and > 20000 nM in experiment [2] (HeLa).

As to `CN1CC[C@@](O)(C#Cc2cc3c(cc2F)OCCn2c-3nc(C(N)=O)c2C2CC2)C1=O` [Example 418, 9-fluoro-10-(3-hydroxy-3-methyl-but-1-ynyl)-3-[[2-methoxyethyl(methyl)amino]methyl]-5,6,7,12-tetrahydro-5,7-methanobenzo[c]imidazo[1,2-a]azepine-2-carboxamide], the IC50 in experiment [1] (Homo sapiens, HeLa, 5 h) was 515 nM; in experiment [2] (HeLa), > 20000 nM.

With `Cc1cc([C@](C)(O)C#Cc2ccc3c(c2)-c2nc(C(N)=O)c([C@H](O)c4ccnn4C)n2C2CC3C2)no1`, the IC50 in experiment [1] (Homo sapiens, HeLa, 5 h) came to 1200 nM.

Broadly, the Ki is a measure of affinity in units of concentration, obtained from inhibition or displacement. Turning to `Cc1nc([C@](C)(O)C#Cc2cc3c(cc2F)C2CC(C2)n2cc(C(N)=O)nc2-3)no1`, the IC50 in experiment [1] (Homo sapiens, HeLa, 5 h) worked out at 792 nM. Also, the Ki in experiment [3] is 0.003 µM.

`CN1CC[C@@](O)(C#Cc2ccc3c(c2)-n2nc(C(N)=O)c(C(F)(F)F)c2CCO3)C1=O` (racemic) [Example 500]: the IC50 in experiment [1] (Homo sapiens, HeLa, 5 h) was 381 nM; in experiment [2] (HeLa), > 20000 nM.

Take `CC(=O)N(Cc1c(C(N)=O)nc2n1C1CC(C1)c1cc(F)c(C#CC(C)(C)O)cc1-2)C(C)C` [Example 371, 3-[[acetyl(isopropyl)amino]methyl]-9-fluoro-10-(3-hydroxy-3-methyl-but-1-ynyl)-5,6,7,12-tetrahydro-5,7-methano-benzo[c]imidazo[1,2-a]azepine-2-carboxamide]: the IC50 is 1900 nM in experiment [1] (Homo sapiens, HeLa, 5 h) and > 20000 nM in experiment [2] (HeLa).

In the case of `CC(C)(O)C#Cc1ccc2c(c1)-c1nc(C(N)=O)c(-c3nnc(C4CC4)s3)n1C1CC2C1` [Example 390, 9-fluoro-10-(3-hydroxy-3-methyl-but-1-ynyl)-3-(trifluoromethyl)-5,6,7,12-tetrahydro-5,7-methanobenzo[c]imidazo[1,2-a]azepine-2-carboxamide], the concentration for half-maximal inhibition (IC50) turned out to be 1500 nM in experiment [1] (Homo sapiens, HeLa, 5 h) and 9500 nM in experiment [2] (HeLa).

As for `CN1CC[C@@](O)(C#Cc2cc3c(cc2F)C2CC(C2)n2cc(C(N)=O)nc2-3)C1=O` [Example 300], the IC50 in experiment [1] (Homo sapiens, HeLa, 5 h) was 3000 nM; in experiment [2] (HeLa) it was > 20000 nM.

With `CN1CC[C@@](O)(C#Cc2ccc3c(c2)-c2nc(C(N)=O)c(Cc4ccccc4Cl)n2C2CC3C2)C1=O` [Example 308], the IC50 in experiment [1] (Homo sapiens, HeLa, 5 h) was found to be 1500 nM; in experiment [2] (HeLa) it was 20000 nM.

As to `Cc1nc2ccccc2n1Cc1c(C(N)=O)nc2n1CCOc1ccc(C#C[C@]3(O)CCN(C)C3=O)cc1-2` [Example 416, 9-fluoro-10-[(3R)-3-hydroxy-3-(5-methylisoxazol-3-yl)but-1-ynyl]-3-[1-(2-hydroxy-2-methyl-propyl)pyrazol-4-yl]-5,6,7,12-tetrahydro-5,7-methanobenzo[c]imidazo[1,2-a]azepine-2-carboxamide], the IC50 is 3200 nM in experiment [1] (Homo sapiens, HeLa, 5 h) and > 20000 nM in experiment [2] (HeLa).

Regarding `Cc1nc([C@](C)(O)C#Cc2cc3c(cc2F)OC[C@@H](N(C)C)c2sc(C(N)=O)nc2-3)no1` (racemic) [Example 256], the IC50 in experiment [1] was 2000 nM; in experiment [1] (Homo sapiens, HeLa, 5 h) it was 2900 nM; in experiment [2] (HeLa) it was > 20000 nM.

`CC(O)(C#Cc1cc2c(cc1F)C1CC(C1)n1cc(C(N)=O)nc1-2)CF` (racemic): the IC50 in experiment [1] (Homo sapiens, HeLa, 5 h) came to 424 nM. In addition, in experiment [3], the Ki turned out to be 0.0031 µM.

Consider `C[C@@H]1COc2ccc(C#C[C@]3(O)CCCN(C)C3=O)cc2-c2nc(C(N)=O)sc21` [Example 493, 10-[2-[(3R)-3-hydroxy-1-methyl-2-oxo-pyrrolidin-3-yl]ethynyl]-N3-methyl-5,6,7,12-tetrahydro-5,7-methanobenzo[c]imidazo[1,2-a]azepine-2,3-dicarboxamide], for which the IC50 in experiment [2] (HeLa) is > 20000 nM.

In the case of `CC(C)(O)C#Cc1cc2c(cc1F)OCCn1c-2nc(C(N)=O)c1-c1nc(C2CC2)n[nH]1`, in experiment [1] (Homo sapiens, HeLa, 5 h), the IC50 is 112 nM. The Ki in experiment [3] stood at 0.002 µM.

For `Cc1cc([C@](C)(O)C#Cc2ccc3c(c2)-c2nc(C(N)=O)c([C@@H](O)c4ccnn4C)n2C2CC3C2)no1` [Example 359], in experiment [1] (Homo sapiens, HeLa, 5 h), the IC50 was found to be 1200 nM.

For the molecule `CNC(=O)c1c(C(N)=O)nc2n1CCOc1cc(F)c(C#CC(C)(O)CF)cc1-2` (stereo not shown) [Example 109], in experiment [1] (Homo sapiens), the IC50 was found to be 272 nM.

For the molecule `Cc1nc([C@](C)(O)C#Cc2ccc3c(c2)-c2nc(C(N)=O)sc2[C@H](F)CO3)no1` [Example 464], the IC50 in experiment [2] (HeLa) is > 20000 nM.

Take `CC(O)(C#Cc1cc2c(cc1F)OCCn1cc(C(N)=O)nc1-2)c1nccs1` (stereo not shown) [Example 144]: the IC50 in experiment [1] (Homo sapiens, HeLa, 5 h) is 483 nM.

As for `Cc1cc([C@](C)(O)C#Cc2cc3c(cc2F)OC[C@@H](N(C)C)c2sc(C(N)=O)nc2-3)no1` [Example 254], the half-maximal inhibitory concentration (IC50) in experiment [2] (HeLa) was found to be 20000 nM.

For `CNC(=O)c1c(C(N)=O)nc2n1CCOc1cc(F)c(C#CC(C)(O)COC)cc1-2` (stereo not shown) [Example 108], the IC50 in experiment [2] came out at 20000 nM.

On to `Cc1nc([C@](C)(O)C#Cc2ccc3c(c2)-c2nc(C(N)=O)sc2[C@@H](C)CO3)no1` (racemic), for which the IC50 in experiment [2] (HeLa) is > 20000 nM.

As for `Cc1nc([C@](C)(O)C#Cc2ccc3c(c2)-c2nc(C(N)=O)sc2[C@](C)(F)CO3)no1` [Example 469], the IC50 in experiment [2] (HeLa) is > 20000 nM.

`Cc1cc([C@@](C)(O)C#Cc2ccc3c(c2)-n2nc(C(N)=O)cc2[C@@H](C)CO3)no1` [Example 519]: the IC50 in experiment [2] (HeLa) is > 20000 nM.

Turning to `Cc1nc([C@](C)(O)C#Cc2ccc3c(c2)-c2nc(C(N)=O)sc2[C@@H](F)CO3)no1`, the IC50 in experiment [2] (HeLa) was > 20000 nM.

As for `CN1CC[C@@](O)(C#Cc2ccc3c(c2)-n2nc(C(N)=O)cc2[C@H](F)CO3)C1=O`, the IC50 in experiment [2] (HeLa) is > 20000 nM.

As to `CC(C)(O)C#Cc1cc2c(cc1F)OCCn1c-2nc(C(N)=O)c1C(O)c1cccc(C(F)(F)F)c1` (stereo not shown), the IC50 in experiment [1] (Homo sapiens, HeLa, 5 h) came out at 344 nM. Also, the inhibition constant Ki in experiment [3] worked out at 0.019 µM.

For the molecule `Cc1cc([C@](C)(O)C#Cc2cc3c(cc2F)OC[C@H](N(C)C)c2sc(C(N)=O)nc2-3)no1` (single isomer, unassigned) [Example 257], the IC50 in experiment [2] (HeLa) came to 20000 nM.

Turning to `C[C@H]1COc2ccc(C#C[C@]3(O)CCCN(C)C3=O)cc2-c2nc(C(N)=O)sc21` (racemic) [Example 501], in experiment [2] (HeLa), the IC50 is > 20000 nM.

`CNC(=O)c1c(C(N)=O)nc2n1C1CC(C1)c1cc(F)c(C#C[C@@](C)(O)c3cc(C)on3)cc1-2`: the IC50 in experiment [1] (Homo sapiens, HeLa, 5 h) turned out to be 683 nM. Also, the Ki in experiment [3] was 0.008 µM.

As for `Cc1cc([C@@](C)(O)C#Cc2ccc3c(c2)-n2nc(C(N)=O)cc2[C@H](C)CO3)no1` (racemic) [Example 513], in experiment [2] (HeLa), the IC50 was > 20000 nM.

The values are drawn from US9034866B2 (Genentech, Inc., priority 2012, dated 2015).
